According to US9290688B2, “Alkaline microbial enhanced oil recovery” (GEO FOSSIL FUELS, LLC, priority 2011, dated 2016):

What was measured:
[1] = system: Rhodococcus rhodochrous ATCC #53968; experiment: Digestion of Red River crude oil with and without beta-oxidation inhibitors; GC of methyl esters of extracted organic acids; format: cell-based; conditions: for Total GC (all peaks integrated by the GC integrator): 0.31 g oil sample; for conv. To umoles FA: approximately 1.0 micromoles per 100 area units; for Cal. AN (calculated acid number): estimated from GC areas
Description: (§1) An oil degrading microorganism was used to evaluate the use of chemical inhibitors to slow the utilization of hydrocarbons in petroleum. In a non-limiting example, three different chemical compounds that have been reported to inhibit beta-oxidation were tested in oil and culture medium on a petroleum sample with a strain of Rhodococcus rhodochrous ATCC #53968 in m9 minimal medium. To test the ability of each chemical inhibitor to slow the consumption of fatty acids a culture of bacteria was grown on a crude oil sample for a period of three days with crude petroleum oil as the only carbon source. Four separate flasks were set up, each with an oil to aqueous media ratio of 1 to 5 (10 ml of crude oil to 50 ml of culture medium). Each of the three chemical inhibitors was added to a separate flask and a fourth flask was allowed to digest without the addition of a chemical inhibitor as a control. The flasks were shaken at a room temperature of about 25° C. under aerobic conditions. The progress of the microbial digestion was monitored by the optical density at 600 nm and by visual inspection of the brown oil color in the aqueous phase. Three days after the addition of inhibitors, or a total of six days of incubation with oil, a small sample of oil (0.31 g) was removed. A second sample of the same size was remover after another 6 days. The organic acids were extracted from each oil sample with 1% NaOH in 70% ethanol. The samples were shaken vigorously for one minute. The aqueous extract material was then extracted with hexane to remove any trace of oil. The samples of extracted organic acids were then dried under vacuum and converted to methyl esters with BF3 in methanol.
The mixtures of methyl esters were analyzed by GC (gas chromatography) using a HP (Hewlett Packard) 5890 GC with an Agilent Technologies capillary column, HP-5 (crosslinked 5% PH) ME Siloxane 0.25 micrometer coating with a length of 30 meter and a column ID (internal diameter) of 0.32 mm. Helium was used as a carrier gas. Detection was by a FID detector and integration of peak areas was done with a HP 3396 integrator. The temperature program held an initial temperature of 40° C. for 1.0 minutes then increased at 15 degrees per minute to 280° C., and finally held at a temperature of 280° C. for 5 minutes. To quantify the amount of organic acids extracted by this procedure, a stock solution of 2-bromooctanoate and 2-bromohexadecanoate were added to a sample of undigested Red River crude petroleum oil and then extracted by the same procedure as the bio-digested oil samples. The average area for theses two organic acids was used to estimate the amount of organic acids in micromoles per area unit determined by the GC integrator. The number was calculated to be approximately 1.0 micromoles per 100 area units. The area units for each of the GC peaks are list in Table 2. This number was used to estimate the micromoles organic acids extracted from the oil. This estimate was used to calculate the number of mg of KOH that equaled the number of micromoles of organic acid estimated. This number is listed on the last row in Table 2 as the calculated AN (acid number) for each digestion experiment. These estimated numbers are only based on organic acids that are hydrophobic enough to stay in the oil phase and not move into the aqueous phase. Organic acids measured include the carboxylic acids made by the bacteria and that have been secreted out of the cell and have migrated back to the oil phase. They are also hydrocarbons that are small enough to be extracted into the ethanol aqueous extraction solvent. This number is likely to be less than the total acid number (TAN), a measure often used to evaluate crude petroleum for amenability to alkaline waterflooding.
The earlier eluting peaks are believed to represent methyl ester of lighter hydrocarbon carboxylic acids and the later eluting peaks are believed to represent methyl ester of the heavier organic acids. […]

[2] = system: Rhodococcus rhodochrous ATCC #53968; experiment: Growth of bacteria on crude oil with inhibitors, optical density at 600 nm; format: cell-based
Description: as §1
Digestion with the bacteria increases the total amount of carboxylic acids in all the samples. The digestions with the chemical beta-oxidation inhibitors produce about the same or a little more total methyl ester peaks than the bacterial digestion without an inhibitor. […] The later eluting peaks increase at a faster rate with the inhibitors than without. For example, the 12 day sample with no inhibitor increase from 5.9 to 45.9 area units for peaks up to 13 minutes. The sample with the acrylic acid inhibitor has an increase of from 5.9 to 43.7 area units, which is less than without inhibitor. The later eluting peaks increase from 3.6 to 14.3 without the inhibitor, but with acrylic acid the later peak areas increase to 22.5 area units. […] After 6 days of digestion the optical density had reached 2.23 for the uninhibited digestion as compared to 0.49 for the acrylic acid inhibited sample and 1.84 for the 2-bromooctanoic acid and 2.4 for the 2-bromohexadeconoic acid. After 12 days of digestion the uninhibited sample had reached 4.0 and the acrylic acid had increased to 1.7 and 2.2 and 2.4 for the other two inhibitors. Therefore, by this experimental analysis one can determine which inhibitors increase the carboxylic acid content or the acid number of the oil fastest with the least amount of oil consumption. The oil consumption can be determined by quantitation of remaining oil or by growth of bacteria were oil is the only carbon source. It appears that all the inhibitors helped reduce the utilization of fatty acids and the consumption of oil while producing an increase in acid number.

[3] = 12 days, listed as acrylic acid
[4] = after 6 days of digestion, crude oil only carbon source

Compound: C=CC(=O)O [AA, acrylic acid]
- GC peak area, retention time 4.5 ([1]; 6 days): 0.242 area units
- GC peak area, retention time 5.6 ([1]; 6 days): 0.948 area units
- GC peak area, retention time 6.6 ([1]; 6 days): 2.856 area units
- GC peak area, retention time 7.6 ([1]; 6 days): 2.724 area units
- GC peak area, retention time 8.2 ([1]; 6 days): 0.703 area units
- GC peak area, retention time 8.5 ([1]; 6 days): 1.907 area units
- GC peak area, retention time 9.4 ([1]; 6 days): 1.575 area units
- GC peak area, retention time 10.2 ([1]; 6 days): 1.591 area units
- GC peak area, retention time 11 ([1]; 6 days): 2.134 area units
- GC peak area, retention time 11.5 ([1]; 6 days): 2.596 area units
- GC peak area, retention time 11.7 ([1]; 6 days): 2.416 area units
- GC peak area, retention time 12.3 ([1]; 6 days): 1.097 area units
- GC peak area, retention time 12.5 ([1]; 6 days): 4.385 area units
- GC peak area, retention time 13 ([1]; 6 days): 0.521 area units
- GC peak area, retention time 13.1 ([1]; 6 days): 1.769 area units
- GC peak area, retention time 13.2 ([1]; 6 days): 3.486 area units
- GC peak area, retention time 13.4 ([1]; 6 days): 1.122 area units
- GC peak area, retention time 13.6 ([1]; 6 days): 0.783 area units
- GC peak area, retention time 13.8 ([1]; 6 days): 2.448 area units
- GC peak area, retention time 14 ([1]; 6 days): 0.447 area units
- GC peak area, retention time 14.2 ([1]; 6 days): 0.78 area units
- SubTotal peak area, later peaks eluting after 13 minutes ([1]; 6 days): 11.356 area units
- SubTotal peak area, peaks eluting before 13 minutes ([1]; 6 days): 25.173 area units
- Total GC area For 1 ml ([1]; 6 days): 175
- Total of all selected peaks ([1]; 6 days): 36.529 area units
- Total GC (all peaks integrated by the GC integrator) ([1]; 6 days): 54.17 area units
- conv. To umoles FA ([1]; 6 days): 1.75 µmol
- Cal. AN (calculated acid number) ([1]; 6 days): 0.098 mg of KOH
- GC peak area, retention time 4.2 ([1]; 12 days): 0.58 area units
- GC peak area, retention time 4.5 ([1]; 12 days): 1.051 area units
- GC peak area, retention time 4.6 ([1]; 12 days): 1.519 area units
- GC peak area, retention time 5.6 ([1]; 12 days): 2.754 area units
- GC peak area, retention time 6.6 ([1]; 12 days): 7.835 area units
- GC peak area, retention time 7.6 ([1]; 12 days): 5.761 area units
- GC peak area, retention time 8.2 ([1]; 12 days): 0.558 area units
- GC peak area, retention time 8.5 ([1]; 12 days): 3.369 area units
- GC peak area, retention time 9.4 ([1]; 12 days): 0.747 area units
- GC peak area, retention time 10.2 ([1]; 12 days): 0.588 area units
- GC peak area, retention time 11 ([1]; 12 days): 1.736 area units
- GC peak area, retention time 11.5 ([1]; 12 days): 2.968 area units
- GC peak area, retention time 11.7 ([1]; 12 days): 3.716 area units
- GC peak area, retention time 12.3 ([1]; 12 days): 2.722 area units
- GC peak area, retention time 12.5 ([1]; 12 days): 6.208 area units
- GC peak area, retention time 12.7 ([1]; 12 days): 1.6421 area units
- GC peak area, retention time 13 ([1]; 12 days): 1.99 area units
- GC peak area, retention time 13.1 ([1]; 12 days): 2.209 area units
- GC peak area, retention time 13.2 ([1]; 12 days): 4.801 area units
- GC peak area, retention time 13.4 ([1]; 12 days): 3.72 area units
- GC peak area, retention time 13.6 ([1]; 12 days): 2.005 area units
- GC peak area, retention time 13.8 ([1]; 12 days): 2.512 area units
- GC peak area, retention time 14 ([1]; 12 days): 2.548 area units
- GC peak area, retention time 14.2 ([1]; 12 days): 2.779 area units
- SubTotal peak area, later peaks eluting after 13 minutes ([1]; 12 days): 22.564 area units
- SubTotal peak area, peaks eluting before 13 minutes ([1]; 12 days): 43.754 area units
- Total GC area For 1 ml ([1]; 12 days): 291
- Total of all selected peaks ([1]; 12 days): 66.318 area units
- Total GC (all peaks integrated by the GC integrator) ([1]; 12 days): 90.15 area units
- conv. To umoles FA ([1]; 12 days): 2.91 µmol
- Cal. AN (calculated acid number) ([1]; 12 days): 0.16 mg of KOH
- SubTotal peak area, later peaks eluting after 13 minutes [1, 3]: 22.5 area units
- SubTotal peak area, peaks eluting before 13 minutes [1, 3]: 43.7 area units
- optical density [2, 4]: 0.49
- optical density ([2]; after 12 days of digestion): 1.7

Compound: CCCCCCC(Br)C(=O)O (stereo not drawn) [Br C8, 2-bromooctanoic acid]
- GC peak area, retention time 4.5 ([1]; 6 days): 0.351 area units
- GC peak area, retention time 5.6 ([1]; 6 days): 0.835 area units
- GC peak area, retention time 6.6 ([1]; 6 days): 2.783 area units
- GC peak area, retention time 7.6 ([1]; 6 days): 2.476 area units
- GC peak area, retention time 8.2 ([1]; 6 days): 0.682 area units
- GC peak area, retention time 8.5 ([1]; 6 days): 1.443 area units
- GC peak area, retention time 9.4 ([1]; 6 days): 1.146 area units
- GC peak area, retention time 10.2 ([1]; 6 days): 1.618 area units
- GC peak area, retention time 11 ([1]; 6 days): 2.608 area units
- GC peak area, retention time 11.5 ([1]; 6 days): 1.69 area units
- GC peak area, retention time 11.7 ([1]; 6 days): 3.004 area units
- GC peak area, retention time 12.3 ([1]; 6 days): 1.604 area units
- GC peak area, retention time 12.5 ([1]; 6 days): 4.566 area units
- GC peak area, retention time 12.7 ([1]; 6 days): 1.145 area units
- GC peak area, retention time 13 ([1]; 6 days): 1.421 area units
- GC peak area, retention time 13.1 ([1]; 6 days): 2.61 area units
- GC peak area, retention time 13.2 ([1]; 6 days): 3.047 area units
- GC peak area, retention time 13.4 ([1]; 6 days): 2.196 area units
- GC peak area, retention time 13.6 ([1]; 6 days): 1.314 area units
- GC peak area, retention time 13.8 ([1]; 6 days): 3.341 area units
- GC peak area, retention time 14 ([1]; 6 days): 1.661 area units
- GC peak area, retention time 14.2 ([1]; 6 days): 0.963 area units
- SubTotal peak area, later peaks eluting after 13 minutes ([1]; 6 days): 16.553 area units
- SubTotal peak area, peaks eluting before 13 minutes ([1]; 6 days): 25.951 area units
- Total GC area For 1 ml ([1]; 6 days): 250
- Total of all selected peaks ([1]; 6 days): 42.504 area units
- Total GC (all peaks integrated by the GC integrator) ([1]; 6 days): 77.5 area units
- conv. To umoles FA ([1]; 6 days): 2.5 µmol
- Cal. AN (calculated acid number) ([1]; 6 days): 0.14 mg of KOH
- GC peak area, retention time 4.2 ([1]; 12 days): 0.47 area units
- GC peak area, retention time 4.5 ([1]; 12 days): 0.943 area units
- GC peak area, retention time 5.6 ([1]; 12 days): 1.656 area units
- GC peak area, retention time 6.6 ([1]; 12 days): 4.625 area units
- GC peak area, retention time 7.6 ([1]; 12 days): 3.349 area units
- GC peak area, retention time 8.2 ([1]; 12 days): 0.497 area units
- GC peak area, retention time 8.5 ([1]; 12 days): 1.763 area units
- GC peak area, retention time 9.4 ([1]; 12 days): 0.681 area units
- GC peak area, retention time 10.2 ([1]; 12 days): 0.387 area units
- GC peak area, retention time 11 ([1]; 12 days): 0.985 area units
- GC peak area, retention time 11.5 ([1]; 12 days): 3.548 area units
- GC peak area, retention time 11.7 ([1]; 12 days): 2.41 area units
- GC peak area, retention time 12.3 ([1]; 12 days): 2.973 area units
- GC peak area, retention time 12.5 ([1]; 12 days): 5.664 area units
- GC peak area, retention time 13 ([1]; 12 days): 2.785 area units
- GC peak area, retention time 13.1 ([1]; 12 days): 4.367 area units
- GC peak area, retention time 13.2 ([1]; 12 days): 7.327 area units
- GC peak area, retention time 13.4 ([1]; 12 days): 8.161 area units
- GC peak area, retention time 13.6 ([1]; 12 days): 4.176 area units
- GC peak area, retention time 13.8 ([1]; 12 days): 4.901 area units
- GC peak area, retention time 14 ([1]; 12 days): 4.709 area units
- GC peak area, retention time 14.2 ([1]; 12 days): 1.74 area units
- SubTotal peak area, later peaks eluting after 13 minutes ([1]; 12 days): 38.166 area units
- SubTotal peak area, peaks eluting before 13 minutes ([1]; 12 days): 31.453 area units
- Total GC area For 1 ml ([1]; 12 days): 373
- Total of all selected peaks ([1]; 12 days): 69.619 area units
- Total GC (all peaks integrated by the GC integrator) ([1]; 12 days): 115.7 area units
- conv. To umoles FA ([1]; 12 days): 3.73 µmol
- Cal. AN (calculated acid number) ([1]; 12 days): 0.21 mg of KOH
- optical density [2, 4]: 1.84
- optical density ([2]; after 12 days of digestion): 2.2
